T1: PmSiaT (Proteus mirabilis, UniProt B4EZY7)
T1 construct: made in house
T1 sequence (B4EZY7 1-496): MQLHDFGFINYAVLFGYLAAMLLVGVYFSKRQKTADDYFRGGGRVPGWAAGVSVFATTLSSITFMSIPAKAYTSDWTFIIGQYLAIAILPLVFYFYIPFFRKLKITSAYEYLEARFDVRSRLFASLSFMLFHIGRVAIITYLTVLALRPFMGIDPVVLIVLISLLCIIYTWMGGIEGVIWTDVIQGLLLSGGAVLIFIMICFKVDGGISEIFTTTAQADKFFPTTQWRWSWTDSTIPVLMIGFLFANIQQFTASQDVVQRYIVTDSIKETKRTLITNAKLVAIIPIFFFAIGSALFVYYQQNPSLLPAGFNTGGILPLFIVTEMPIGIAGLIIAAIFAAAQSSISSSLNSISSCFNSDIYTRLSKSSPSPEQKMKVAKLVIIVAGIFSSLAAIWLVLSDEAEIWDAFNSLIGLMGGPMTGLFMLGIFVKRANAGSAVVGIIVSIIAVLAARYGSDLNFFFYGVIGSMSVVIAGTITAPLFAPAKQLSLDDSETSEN


Experiments:
PmSiaT = molecular target: T1, PmSiaT; experiment: nanoDSF thermal shift assay, PmSiaT; assay type: binding; conditions: for Average 1 / Average 2 / Average 3 / Replicate 1 / Replicate 2 / Replicate 3: PmSiaT Tm; for Average 1: average of experiment 1; for Average 2: average of experiment 2; for Average 3: average of experiment 3; for Replicate 1: experiment 1, second capillary; for Replicate 1 / Replicate 2 / Replicate 3 / Tm 1 / Tm2 / Tm 3 / Tm average overall: 1.25 mM; for Replicate 2: experiment 2, second capillary; for Replicate 3: experiment 3, second capillary; for Tm 1 / Tm2 / Tm 3 / Tm average overall: PmSiaT; for Tm 1: experiment 1, first capillary; for Tm2: experiment 2, first capillary; for Tm 3: experiment 3, first capillary; for Tm average overall: three experiments
Protocol: (§1) Nano-differential scanning fluorimetry (nanoDSF) is a high-throughput method that relies on the thermal stabilization of the folded protein state by a bound ligand.[33]
(§2) The melting points of protein–inhibitor complexes were measured on a Prometheus NT.48 instrument from NanoTemper Technologies. Solutions containing the protein at 2 μM in phosphate buffered saline with 0.0174% (w/v) dodecylmaltoside (DDM) and the ligand at 1.25 mM were loaded onto standard capillaries by NanoTemper. The temperature was increased from 25 to 95 °C at a ramp rate of 1 °C/min. The fluorescence was recorded at 330 and 350 nm and as a ratio of the two wavelengths.
(§3) The intensity ratio and its first derivative were calculated using manufacturer’s software (PR.ThermControl, version 2.1.2).
(§4) The melting temperatures have been measured in 3 separate experiments. In each experiment, two capillaries were included per compound, having therefore 2 technical replicates per experiment. In the table all data is presented. Tm1 and Replicate 1 represent the two replicates of the first experiment. Average 1 is the average between Tm 1 and Replicate 1. ΔTm 1 is the thermal shift when compared to the Tm of Neu5Ac. This is calculated from Average 1. The ΔTm presented in the article are the ΔTm average overall, which represent the overall average of the averages from the three experiments. The standard deviation (SD) is calculated from the […]

SaSiaT = SaSiaT (Staphylococcus aureus, UniProt A0A0H2XJ46); experiment: nanoDSF thermal shift assay, SaSiaT; assay type: binding; conditions: for Average 1 / Average 2 / Average 3 / Replicate 1 / Replicate 2 / Replicate 3: SaSiaT Tm; for Average 1: average of experiment 1; for Average 2: average of experiment 2; for Average 3: average of experiment 3; for Replicate 1: experiment 1, second capillary; for Replicate 1 / Replicate 2 / Replicate 3 / Tm2 / Tm 3 / Overall average (Tm) / Tm 1: 1.25 mM; for Replicate 2: experiment 2, second capillary; for Replicate 3: experiment 3, second capillary; for Tm2 / Tm 3 / Overall average (Tm) / Tm 1: SaSiaT; for Tm2: experiment 2, first capillary; for Tm 3: experiment 3, first capillary; for Overall average (Tm): three experiments; for Tm 1: experiment 1, first capillary
Protocol: as §1, §2, §3, §4

[1] = substrate: CC(=O)N[C@H]1[C@H]([C@H](O)[C@H](O)CO)OC(O)(C(=O)O)C[C@@H]1O; experiment: cells, lysate or membranes named; conditions: other: Neu5Ac transport by SaSiaT in proteoliposomes; pH 7.0; 25.0 °C
Protocol: A kinetic analysis was performed by measuring the concentration-dependent uptake of [^3H]Neu5Ac in the presence of two different concentrations of the inhibitors 3f (Figure 5a,c) or 3e (Figure 5b,d).
(a–d) Data were plotted according to Lineweaver–Burk as a reciprocal transport rate vs reciprocal Neu5Ac concentration. The transport rate was measured, in 5 min, by adding [^3H] Neu5Ac at the indicated concentrations to proteoliposomes containing 20 mM K^+-gluconate in the presence of valinomycin as described in the Supporting Information. [(A,B) P. mirabilis SiaT]; (A) compound 3f 0.25 μM (●) or 0.75 μM (□) was added in comparison to samples without inhibitor (○). […]
For uptake experiments, 600 μL of proteoliposomes were loaded onto a Sephadex G-75 column (0.7 cm diameter × 15 cm height), pre-equilibrated with 20 mM Hepes Tris pH 7.0 with 40 mM sucrose to balance the internal osmolarity. […] For kinetic measurement, the initial transport rate was measured by stopping the reaction after 5 min, that is, within the initial linear range of [^3H]-Neu5Ac uptake into the proteoliposomes previously described. […] In both uptake and efflux experiments, the transport assay was terminated by loading each proteoliposome sample (100 μL) on a Sephadex G-75 column (0.6 cm diameter × 8 cm height) to remove the external radioactivity. […]

| Molecule | Average 1 (PmSiaT) [°C] | Average 2 (PmSiaT) [°C] | Average 3 (PmSiaT) [°C] | Replicate 1 (PmSiaT) [°C] | Replicate 2 (PmSiaT) [°C] | Replicate 3 (PmSiaT) [°C] | Tm 1 (PmSiaT) [°C] | Tm2 (PmSiaT) [°C] | Tm 3 (PmSiaT) [°C] | Tm average overall (PmSiaT) [°C] | Average 1 (SaSiaT) [°C] | Average 2 (SaSiaT) [°C] | Average 3 (SaSiaT) [°C] | Replicate 1 (SaSiaT) [°C] | Replicate 2 (SaSiaT) [°C] | Replicate 3 (SaSiaT) [°C] | Tm2 (SaSiaT) [°C] | Tm 3 (SaSiaT) [°C] | Overall average (Tm) (SaSiaT) [°C] | Tm 1 (SaSiaT) [°C] | further results |
| --- | --- | --- | --- | --- | --- | --- | --- | --- | --- | --- | --- | --- | --- | --- | --- | --- | --- | --- | --- | --- | --- |
| CC(=O)NC1C(O)CC(O)(C(=O)O)OC1C(O)C(O)CN=[N+]=[N-] (centres unmarked) [Compound 8g] | 46.0 | 46.1 | 46.0 | 45.9 | 46.2 | 46.1 | 46.0 | 46.0 | 45.9 | 46.0 | 48.7 | 47.4 | 48.5 | 42.7 | 47.4 | 48.3 | 47.4 | 48.6 | 48.2 | – | – |
| CC(=O)N[C@H]1[C@H]([C@H](O)[C@H](O)CO)OC(C(=O)O)=C[C@@H]1O [Compound 9, 2-deoxy-2,3-didehydro-N-acetylneuraminic acid, reference compound] | 45.9 | 46.2 | 46.2 | 45.7 | 46.1 | 46.3 | 46.1 | 46.3 | 46.2 | 46.1 | 45.1 | 45.8 | 45.9 | 45.2 | 46.4 | 46.4 | 45.2 | 45.4 | 45.6 | 45.0 | – |
| O=C(CO)N[C@H]1[C@H]([C@H](O)[C@H](O)CO)OC(O)(C(=O)O)C[C@@H]1O (some centres unmarked) [Neu5Gc, 5-N-glycolyl neuraminic acid, reference compound] | 48.0 | 48.1 | 48.0 | 48.0 | 48.0 | 48.0 | 47.9 | 48.1 | 48.0 | 48.0 | 53.3 | 53.3 | 53.6 | 53.3 | 53.4 | 53.6 | 53.2 | 53.6 | 53.4 | 53.3 | ΔTm at 1250 µM (PmSiaT; read-out: ΔTm average overall): -1.2 °C |
| SiaT from S. aureus (Staphylococcus aureus subsp. aureus USA300) (protein) MKEVGFGTLNWVAVIIYLLAMLFIGVYFTKRASQSTNSFFTASGRLPSWVVGFSIYATTLSAITFMSTPEKAFLTDWSYIAGNIAIVAIIPLLIYFYVPFFKKLKVTSAYEYLEARFGPSIRVIGSLLFVVYHLGRVAIVIYLPTLAITSVSDMNPYIVASLVGLLCILYTFLGGFEGVVWSDFIQGVILLGGALVIIILGVVNIKGGFGTVFADAIEHKKLISADNWKLNTAAAAIPIIFLGNIFNNLYQYTASQDVVQRYQASDSLKETNKSLWTNGILALISAPLFYGMGTMLYSFYTHEAVLPKGFNTSSVVPYFILTEMPPFVAGLLIAAIFAAAQSTISSSLNSISACISIDIKQRFFGKGSERHEVNFARFIIIIAGIFGFGMSLYLIASNSNDLWDLFLFVTGLFGVPLAGVFAVGIFTKRTNTFGVICGLILGIIFAYVYNGVGKGNSPFYVSTISFTVAFVFAYILSFIVPSKHKKDITGLTIFEKDKPSTYISKTATKK | – | – | – | – | – | – | – | – | – | – | – | – | – | – | – | – | – | – | – | – | Km [1]: 12.2 ± 2.2 µM; Vmax [1]: 51 ± 9 nmol/mg protein/min |

From PMC9295122, “Sialic Acid Derivatives Inhibit SiaT Transporters and Delay Bacterial Growth” (ACS Chemical Biology, 2022)
